The text below walks through data of patent publication US20230105212A1, “BIPHENYL DERIVATIVE INHIBITOR, PREPARATION METHOD THEREFOR AND USE THEREOF” (SHANGHAI HANSOH BIOMEDICAL CO., LTD., priority 2020, published 2023).

For experiment [1], the target named is T1, PD-L1 protein on the surface of MC38-hPDL1 tumor cells (Homo sapiens, UniProt Q9NZQ7).
T1 construct: expressed in transfected cells; host or cells: MC38-hPDL1 (mouse colon cancer cells)
Briefly: Induction of endocytosis of PD-L1 on the surface of tumor cells (flow cytometry). Conditions: 16 hours incubation; for Emax: MC38-hPDL1 cells, read-out: MC38 maximum endocytosis rate; for IC50: inducing endocytosis of PD-L1, MC38-hPDL1 cells, read-out: MC38 IC50. The format is cell-based. From the text:
Test Embodiment 2. Test of the Activity of Compounds of the Present Disclosure on Inducing the Endocytosis of PD-L1 Protein on the Surface of Tumor Cells
Experimental purpose: The purpose of this test embodiment was to test the activity of the compound on inducing the endocytosis of PD-L1 on the surface of tumor cells.
Experimental method: In order to test the activity of the compound on inducing the endocytosis of PD-L1, in this experiment, the activity of the compound on inducing the endocytosis of PD-L1 was tested by detecting the change degree of PD-L1 on the tumor cell surface with fluorescently labeled anti-PD-L1 antibody, and the IC50 of activity of the compound on inducing the endocytosis of PD-L1 was obtained.
The mouse colon cancer cells MC38-hPDL1 with high expression of hPD-L1 were collected, and adjusted to a suitable density and plated in a 24-well plate, and placed in a 37° C., 5% CO2 incubator to adhere overnight. Compounds were prepared into different concentrations by medium and added to a 24-well plate, and a vehicle control well was set up. After the cells were incubated in a 37° C., 5% CO2 incubator for 16 hours, the 24-well plate was taken out, and MC38-hPDL1 cells with different treatments in the plate were collected. After the cells were washed once with FACS buffer (PBS containing 0.5% BSA), and the cells were prepared to an appropriate density with FACS buffer. PE Mouse Anti-Human CD274 antibody (BD Pharmingen #557924) was added, and the cells were shaken at room temperature and incubated for 30 minutes without light, then the cells were washed twice with FACS buffer, resuspended in 100 μL of PBS, and a flow cytometer was used to detect the fluorescent signal on the cell surface, and the isotype control was set as a negative control.
The endocytosis rate of the compounds was calculated from the fluorescence signals of different treatment groups, and the compound concentration and endocytosis rate were fitted by nonlinear regression using GraphPad Prism software, and IC50 values were obtained, as shown in Table 2.
In general terms: Flow cytometry measures light scatter and fluorescence of single cells or particles in a stream.

For experiment [2], the target named is T2, human PD-1/PD-L1 binding (Homo sapiens, UniProt Q9NZQ7).
T2 construct: PD-L1-His protein (19 to 238 amino acids) (Abcam #ab167713); purchased Abcam (PD-L1-His); R&D (PD-1-Fc) ab167713; 1086-PD
T2 sequence (Q9NZQ7 19-238): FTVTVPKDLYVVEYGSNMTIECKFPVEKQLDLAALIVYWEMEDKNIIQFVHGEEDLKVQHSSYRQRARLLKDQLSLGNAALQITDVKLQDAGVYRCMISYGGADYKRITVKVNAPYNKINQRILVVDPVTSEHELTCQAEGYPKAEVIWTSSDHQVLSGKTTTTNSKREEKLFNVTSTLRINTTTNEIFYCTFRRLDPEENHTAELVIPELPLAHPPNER
Briefly: Inhibition of human PD-1/PD-L1 binding (TR-FRET/HTRF). The following applies: TR-FRET, PD-L1-His and PD-1-Fc; read-out: PD-1/PD-L1 binding IC50. From the text:
Test Embodiment 1: Test of Inhibitory Effect of the Compounds of the Present Disclosure on Human PD-1/PD-L1 Binding
Experimental purpose: The purpose of this test embodiment was to measure the inhibitory activity of the compounds on human PD-1/PD-L1 binding.
Experimental reagents: Binding Domain diluent buffer was purchased from Cisbio Company, Cat. No.: 62DLBDDF; MAb Anti-6HIS Eu cryptate Gold was purchased from Cisbio Company with the article number of 61HI2KLA; PAb Anti Human IgG-XL665 was purchased from Cisbio Company with the article number of 61HFCXLB; PD-L1-His protein was purchased from Abcam Company with the article number of ab167713; PD-1-Fc protein was purchased from R&D Company with the article number of 1086-PD; Detection buffer was purchased from Cisbio Company with the article number of 62SDBRDD; 384-well plate was purchased from PerkinElmer Company with the article number of 6007290.
Experimental method: In order to test the inhibitory activity of the compounds on human PD-1/PD-L1 binding, the method of time-resolved fluorescence resonance energy transfer (TR-FRET) was used in this experiment to test the inhibition of the compounds on human PD-1/PD-L1 binding, and the half inhibitory concentration IC50 of inhibitory activity of the compounds on human PD-1/PD-L1 binding was obtained.
This experiment was performed in a 384-well plate with a total reaction volume of 20 μL. Compounds were diluted to different concentrations (10 μM or 1 μM starting, 3-fold dilution, 11 doses) using assay buffer Binding Domain diluent buffer (Cisbio #62DLBDDF), then PD-L1-His protein (19 to 238 amino acids) (Abcam #ab167713) was diluted to 10 nM with assay buffer, and PD-1-Fc protein (25 to 167 amino acids) (R&D #1086-PD) was diluted to 20 nM with assay buffer; the compound, PD-L1 protein and PD-1 protein were added to a 384-well plate respectively, and the total volume was 10 μL, then centrifuged at 1000 rpm for 1 minute to mix well, and incubated for 60 minutes at room temperature. Then 10 μL of a mixed solution of MAb Anti-6HIS Eu cryptate Gold (Cisbio #61HI2KLA) and PAb Anti Human IgG-XL665 (Cisbio #61HFCXLB) diluted by HTRF Detection buffer was added to each well, and centrifuged at 1000 rpm for 1 minute to mix well. The reaction was carried out at room temperature for 3 hours or at 4° C. overnight, then a microplate reader (BioTek Synergy H1) was put into for reading; the excitation wavelength was 340 nm, and the emission wavelengths were 620 nm and 665 nm.
The ratio of fluorescence readings at 620 nm and 665 nm (665 nm/620 nm) was calculated, and the inhibition rate was calculated.

T1 sequence (Q9NZQ7 19-290): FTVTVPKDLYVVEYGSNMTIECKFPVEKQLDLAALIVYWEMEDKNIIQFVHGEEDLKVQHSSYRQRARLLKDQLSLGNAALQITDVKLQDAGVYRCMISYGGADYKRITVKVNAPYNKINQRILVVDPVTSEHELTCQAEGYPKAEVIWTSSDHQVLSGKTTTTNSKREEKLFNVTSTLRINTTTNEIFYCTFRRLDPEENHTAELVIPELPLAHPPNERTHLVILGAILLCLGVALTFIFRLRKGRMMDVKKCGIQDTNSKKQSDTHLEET

As for `COc1cc(C(=O)Nc2cccc(-c3cccc(NC(=O)c4nc5c(n4C)CCN(C)C5)c3Cl)c2C)ncc1CN1CC[C@@H](F)C1` [Embodiment 25, (R)—N-(2-Chloro-3′-(5-((3-fluoropyrrolidin-1-yl)methyl)-4-methoxypicolinamido)-2′-methyl-[1,1′-biphenyl]-3-yl)-1,5-dimethyl-4,5,6,7-tetrahydro-1H-imidazo[4,5-c]pyridine-2-carboxamide], in experiment [1], the Emax came to 95% and the IC50 turned out to be 0.9 nM.

With `COc1nc(OCc2cccc(-c3cccc(NC(=O)c4nc5c(n4C)CCN(C)C5)c3Cl)c2C)nc(OC)c1CN1CCCC[C@H]1C(=O)O` [Embodiment 170, (S)-1-((2-((2′-Chloro-3′-(1,5-dimethyl-4,5,6,7-tetrahydro-1H-imidazo[4,5-c]pyridine-2-carboxamido)-2-methyl-[1,1′-biphenyl]-3-yl)methoxy)-4,6-dimethoxypyrimidin-5-yl)methyl)piperidine-2-carboxylic Acid], the IC50 in experiment [2] is 4.1 nM.

On to `CNC(=O)CNCc1ccc(-c2cccc(-c3cccc(NC(=O)c4nc5c(n4C)CCN(C)C5)c3Cl)c2Cl)nc1OC` [Embodiment 140, N-(2,2′-Dichloro-3′-(6-methoxy-5-(((2-(methylamino)-2-carbonylethyl)amino)methyl)pyridin-2-yl)-[1,1′-biphenyl]-3-yl)-1,5-dimethyl-4,5,6,7-tetrahydro-1H-imidazo[4,5-c]pyridine-2-carboxamide], for which the IC50 in experiment [2] is 9.1 nM.

On to `COc1cc(C(=O)Nc2cccc(-c3cccc(NC(=O)c4nc5c(n4C)CCN(C)C5)c3Cl)c2C)ncc1CN[C@@H]1CCNC1=O` [Embodiment 97, (R)—N-(2-Chloro-3′-(4-methoxy-5-(((2-carbonylpyrrolidin-3-yl)amino)methyl)picolinamido)-2′-methyl-[1,1′-biphenyl]-3-yl)-1,5-dimethyl-4,5,6,7-tetrahydro-1H-imidazo[4,5-c]pyridine-2-carboxamide], for which the IC50 in experiment [2] came out at 5 nM.

Consider `COc1cc(NCc2cnc(C(=O)Nc3cccc(-c4cccc(NC(=O)c5nc6c(n5C)CCN(C(C)C)C6)c4Cl)c3C)cc2OC)ccn1` [Embodiment 70, N-(2-Chloro-3′-(4-methoxy-5-(((2-methoxypyridin-4-yl)amino)methyl)picolinamido)-2′-methyl-[1,1′-biphenyl]-3-yl)-5-isopropyl-1-methyl-4,5,6,7-tetrahydro-1H-imidazo[4,5-c]pyridine-2-carboxamide], for which, in experiment [1], the Emax is 81% and the IC50 stood at 4 nM.

Regarding `Cc1nccc(NCc2ccc(C(=O)Nc3cccc(-c4cccc(NC(=O)c5nc6c(n5C)CCN(C)C6)c4Cl)c3C)nc2)c1F` [Embodiment 105, N-(2-Chloro-3′-(5-(((3-fluoro-2-methylpyridin-4-yl)amino)methyl)picolinamido)-2′-methyl-[1,1′-biphenyl]-3-yl)-1,5-dimethyl-4,5,6,7-tetrahydro-1H-imidazo[4,5-c]pyridine-2-carboxamide], in experiment [2], the IC50 was determined as 8.5 nM.

Turning to `COc1cc(C(=O)Nc2cccc(-c3cccc(NC(=O)c4nc5c(n4C)CCN(C)C5)c3Cl)c2C)ncc1CNCc1ncccc1OC` [Embodiment 13, N-(2-Chloro-3′-(4-methoxy-5-((((3-methoxypyridin-2-yl)methyl)amino)methyl)picolinamido)-2′-methyl-[1,1′-biphenyl]-3-yl)-1,5-dimethyl-4,5,6,7-tetrahydro-1H-imidazo[4,5-c]pyridine-2-carboxamide], in experiment [1], the Emax stood at 87% and the IC50 turned out to be 6.6 nM.

As for `COc1cc(-c2cccc(-c3cccc(NC(=O)c4nc5c(n4C)CCN(C)C5)c3Cl)c2Cl)cnc1CN1CC(F)C1` [Embodiment 163, N-(2,2′-Dichloro-3′-(6-((3-fluoroazetidin-1-yl)methyl)-5-methoxypyridin-3-yl)-[1,1′-biphenyl]-3-yl)-1,5-dimethyl-4,5,6,7-tetrahydro-1H-imidazo[4,5-c]pyridine-2-carboxamide], the IC50 in experiment [2] came to 7.7 nM.

With `COc1cc(C(=O)Nc2cccc(-c3cccc(NC(=O)c4nc5c(n4C)CCN(C)C5)c3Cl)c2C)ncc1CNCC1(F)CCOCC1` [Embodiment 19, N-(2-Chloro-3′-(5-((((4-fluorotetrahydro-2H-pyran-4-yl)methyl)amino)methyl)-4-methoxypicolinamido)-2′-methyl-[1,1′-biphenyl]-3-yl)-1,5-dimethyl-4,5,6,7-tetrahydro-1H-imidazo[4,5-c]pyridine-2-carboxamide], in experiment [1], the Emax came out at 85% and the IC50 turned out to be 7 nM.

In the case of `COc1cc(NCc2cnc(C(=O)Nc3cccc(-c4cccc(NC(=O)c5nc6c(n5C)CCN(C)C6)c4Cl)c3C)cc2C2CC2)ccn1` [Embodiment 44, N-(2-Chloro-3′-(4-cyclopropyl-5-(((2-methoxypyridin-4-yl)amino)methyl)picolinamido)-2′-methyl-[1,1′-biphenyl]-3-yl)-1,5-dimethyl-4,5,6,7-tetrahydro-1H-imidazo[4,5-c]pyridine-2-carboxamide], in experiment [1], the Emax came out at 88% and the IC50 stood at 4.2 nM.

As for `COc1nc(-c2cccc(-c3cccc(NC(=O)c4nc5c(n4C)CCN(C)C5)c3Cl)c2Cl)ccc1CN1CCN(C(=O)C(F)(F)F)CC1` [Embodiment 202, N-(2,2′-Dichloro-3′-(6-methoxy-5-((4-(2,2,2-trifluoroacetyl)piperazin-1-yl)methyl)pyridin-2-yl)-[1,1′-biphenyl]-3-yl)-1,5-dimethyl-4,5,6,7-tetrahydro-1H-imidazo[4,5-c]pyridine-2-carboxamide], in experiment [1], the Emax was found to be 89%.

With `COc1nc(-c2cccc(-c3cccc(NC(=O)c4nc5c(n4C)CCN(C)C5)c3Cl)c2Cl)ccc1CN1CCN(S(C)(=O)=O)CC1` [Embodiment 204, N-(2,2′-Dichloro-3′-(6-methoxy-5-((4-(methylsulfonyl)piperazin-1-yl)methyl)pyridin-2-yl)-[1,1′-biphenyl]-3-yl)-1,5-dimethyl-4,5,6,7-tetrahydro-1H-imidazo[4,5-c]pyridine-2-carboxamide], in experiment [1], the Emax was 89%.

In the case of `COc1ccnc(NCc2cnc(C(=O)Nc3cccc(-c4cccc(NC(=O)c5nc6c(n5C)CCN(C)C6)c4Cl)c3C)cc2OC)c1` [Embodiment 12, N-(2-Chloro-3′-(4-methoxy-5-(((4-methoxypyridin-2-yl)amino)methyl)picolinamido)-2′-methyl-[1,1′-biphenyl]-3-yl)-1,5-dimethyl-4,5,6,7-tetrahydro-1H-imidazo[4,5-c]pyridine-2-carboxamide], in experiment [1], the Emax was 84% and the IC50 came out at 6.5 nM.
